Reference: article PMC8899577, “Targeting the anti-apoptotic Bcl-2 family proteins: machine learning virtual screening and biological evaluation of new small molecules” (Theranostics, 2022)
Read-outs that look alike come from different tables or passages of the source.

What was measured:
M14 cells = assay: Western blot of PARP1 cleavage, M14; assay type: cell-based, Human; details: 72 h
Experimental: Western blot analyses of total protein extracts were performed as previously described. Immunodetection was performed using antibodies directed to poly (ADP-ribose) polymerase (PARP; BD Biosciences San Diego, CA, USA), LC3B (Cell Signaling Technology, Danvers, MA), HSP72/73 (Calbiochem, EMD Biosciences, La Jolla, CA), Bcl-2 (SC-509, Santa Cruz Biotechnology Inc, Dallas, TX, USA), Bcl-xL (SC-271121, Santa Cruz Biotechnology Inc), Mcl-1 (SC-12756, Santa Cruz Biotechnology Inc) α-tubulin (Santa Cruz Biotechnology Inc) actin (Sigma-Aldrich, St. Louis, Missouri, USA). Anti-rabbit or anti-mouse immunoglobulin G-horseradish peroxidase-conjugated antibodies (Amersham Biosciences, Freiburg, Germany) were used as secondary antibody. Images were acquired by Image Lab Software (Bio-Rad, Hercules, CA, USA), using a ChemiDoc System instrument (Bio-Rad). The densitometric evaluation was performed using Image J software and normalized with relative controls.
Figure 5 Analysis of apoptosis induction by IS20 and IS21 in leukemia, melanoma and NSCLC cells. […] (A-F) Reported images are representative of two independent experiments with similar results. HSP72/73 or α-Tubulin are shown as loading and transferring control. (G) Flow cytometric quantification of cells in the subG1 peak of cell cycle distribution by propidium iodide staining in HL60 cell line treated with IS20 or IS21 (20 μM for 24 h) and in M14, H1299 and MDA-MB-231 cell lines treated with IS20 or IS21 (20 μM for 72 h). Data are reported as mean ± SD of three independent experiments. p-values were calculated between control (Ctrl) and treated cells, * p < 0.05. (H) Flow cytometric quantification of cells in the subG1 peak by propidium iodide staining in M14 and H1299 cell lines treated with IS20 or IS21 (20 μM, 72 h) in presence or absence of the pan caspase inhibitor z-VAD (50 μM). p-values were calculated between treated control (Ctrl) cells, # p < 0.01, ## p < 0.001 or between cells treated with IS20 or IS21 alone or in combination with z-VAD, * p < 0.05, ** p < 0.005. (G-H) Data are reported as mean of two (H) or three (G) experiments ± SD.

[1] = Pharmacokinetics in mouse plasma (LC-MS/MS); assay type: in vivo, C57/Bl6 mice; details: mice, intraperitoneal; for Tmax: read-out: time of maximum plasma concentration after injection
Experimental: 184 In vivo experi ments. […]
186 30% PEG400 (Sigma-Al drich) and 60% NaCl. Mice were sacrificed starting from 15 min to 24 h
187 after injection. Blood samples were collected b y cardiac puncture, centri fuged at 3,000 g for 10 min
188 at 4 °C and the obtained plasma was stored at - 80 °C until the analysis performed b y liquid
189 chromatograph y tandem mass spectrometry (LC –MS/MS). Given that the two compounds were
190 singularl y administered to the animals for the pharmacokinetic studies, IS20 was used as internal
191 standard (IS) for IS21 and vice versa. Internal Standard Working Solutions (IS-WS) were prepared
192 by adding appropriate volumes of the stock solutions to 50 mL of 0.1% formic acid (Fluka, Milan,
193 Ital y) in methanol:acetonitrile (50:50, v/v, Sigma -Aldrich), in order to reach a final concentration of
194 50 ng/m L. The solutions were maintained at - 20°C.
195 LC-MS/MS Analysis. 40 µ L of mouse plasma were mixed with 160 µ L o f IS -WS. The mixture was
196 vortex mixed for 1 min and centrifuged at 12,000 g for 10 min at 4 °C. The supernatant was
197 collected and 8 µL were injected into the LC–MS/MS system. The HP LC equipment consists of a
198 Series 200 Micro-LC Pump and a Series 200 autosampler from Perkin Elm er (Norwalk, CT, USA).
199 A triple quadrupole mass spectrometer, AB-Sciex API2000 (Toronto, ON, Canada) was used for
200 detection. The anal yt es were anal yzed using a C18 phase Kinetex column (10 cm x 2.1 mm ID) fro m
201 Phenomenex (Torran ce, CA, USA) packed with core–shell particles of […]. The mobile phases
202 were (A) acetonitrile an d (B) water, both containing 0.1% formic acid, at a flow rate of 0.25 mL /
203 min and were entirel y transferred into the mass spectrometer source. Gradient elution was as
204 follows: increase of the organic phase from 60 to 80% in 0.8 min, then to 90% in the following 1.2
205 min and linearly to 100% in 2 min. Finally, after 3.9 min of 100% , the column was led to the
206 original conditions in 2.5 min to enable equilibration of the column.
207 Both anal ytes were detected in positive ionization with a capillar y voltage of 5500 V, nebulizer gas
208 (air) at 40 psi, turbo gas (nitrogen) at 70 psi and 400 °C. The other ion source parameters were set
209 as follows: curtain gas (CUR) 18 psi; collision gas (CAD) 6 psi; declustering potential (DP) 80 V,
210 entrance potential (EP) 1 2 V.
211 The quantitative data were acquired using Multi Reaction Monitoring (MRM) acquisition mode.
212 Two MRM transitions (precursor ion>fragment ion) were selected for the analytes. For IS20
214 eV while collision cell exit potential (CXP) was at 19 and 8 V for the two transitions, respectively.
216 and 51 eV while collision cell exit potential (CXP) was at 21 and 6 V for the two transitions,
218 The anal ytical method was validated according to FDA guidelines for bioanalytical method
219 validation. Linearity, recover y, matrix effect, precision, accurac y, limits of detection (LODs) and
220 lower limits of quantification (LLOQs) were evaluated.
221 Calibration standard solutions were prepared in blank plasma b y spiking 25 µL of a standard
222 mixture at appropriate concentration to 40 µL of plasma and by adding 140 µL of methanol:
223 acetonitrile (50:50, v/v). Calibrators were then treated similarly to the animal samples. The
224 calibration range was 5 to 7500 ng/ mL and the calibrators were prepared at nine level of
225 concentration. Precision, recover y and accurac y w ere ev aluated at three lev el of concentrations (25,
226 […]) and resulted within the acceptable limits.
227 The limit of detection (LOD) was defined as the lowest concentration with a signal- to-noise (S/N)
228 ratio greater than 3. The limit of quantification (LOQ) was defined as the concentration at which
229 both precision (RSD%) and accurac y were less than 20%. LOQ resulted to be 2 ng/ mL while LOD
231 The validated method was then successfully applied in measuring IS20 and IS21 following drug […]

[2] = C57/Bl6, mouse, plasma, ip, 100 mg/kg

| SMILES | PARP1 cleavage, M14 (M14 cells) | Tmax [1, 2] [h] | Cmax ([1]; C57/Bl6, mouse, ip, 50 mg/kg, plasma) [µM] | AUC ([1]; C57/Bl6, mouse, ip, 50 mg/kg, plasma, read-out: mean AUCtot) [µM·h] | half-life ([1]; C57/Bl6, mouse, ip, 50 mg/kg, plasma, read-out: mean t½ (converted)) [h] | Tmax ([1]; C57/Bl6, mouse, plasma, ip, 50 mg/kg) [h] | mean total clearance ([1]; 50 mg/kg) [mL/min/kg] |
| --- | --- | --- | --- | --- | --- | --- | --- |
| CCCCOc1ccc(C2/C(=C(\O)c3ccc4c(c3)CC(C)O4)C(=O)C(=O)N2c2nnc(SCc3ccc(Cl)cc3)s2)cc1OCC (stereo not drawn) [IS20] | cleavage of PARP1 | 16 |  |  |  |  |  |
| CCCCCOc1ccc(C2/C(=C(\O)c3ccc4c(c3)CC(C)O4)C(=O)C(=O)N2c2nnc(SCc3ccc(Cl)cc3)s2)cc1OCC (stereo not drawn) [IS21] | cleavage of PARP1 | 4 | 4.1 | 40.9 | 11 | 2 | 26.3 |
